One compound from patent publication US12208091B2, “Compounds for treatment of eye diseases associated with excessive vascularisation” (Active Biotech AB, priority 2019, dated 2025) can be followed below.

The subject of assay [1] is VEGF induced corneal vascularisation. Kind of assay: VEGF induced corneal vascularisation (pellet in corneal pocket), area of neovascularisation. Type of assay: in vivo, C57BL/6 mice. More on the design: Area of vasc.: unit not given beside the values. The protocol:
The area of the neovascularisation can be measured using the formula: Area=0.2·VL·CH·π wherein vessel length (VL) and continuous circumferential zone (in clock hours=CH) are measured as defined in FIG. 1. Treatment with Laquinimod of VEGF Induced Corneal Vascularisation
Hydron pellets for induction of vascularisation were prepared from stimulant (VEGF) and binding agent (sucralfate).
53 CR female C57BL/6 mice aged 6 to 8 weeks were prepared for surgery by anesthetising with 90 mg/kg of pentobarbital, ip. Corneal vascularisation was induced by placement of a pellet in a corneal pocket cut in one eye. Signs for ocular irritation or infection were carefully monitored.
[…] Vascularisation was measured on day 8.

The test system of assay [2] is Human retinal microvascular endothelial cells (HRMECs). Description: LPS-activated microglia-induced HRMEC tube formation (co-culture). Type of assay: cell-based. The note with it: 10 μM; normalised to vehicle 0%, sulforaphane 100%. The protocol: The following experimental groups were included in the study: • Group 1: […] Sulforaphane (10 μM, positive control, anti-angiogenic effects) • Group 3: Aflibercept (“Eylea” 40 μg/ml, positive control, partial anti-angiogenic effects) • Group 4: […] Human retinal microvascular endothelial cells (HRMECs) were purchased from Neuromics (Cat #HEC09, Lot #2872) and cultured according to manufacturer's instructions in Endo-Growth media (Cat #EKG001, Lot #EKG0011902269) supplemented with Endothelial Growth Factor (Cat #EKG001, Lot #EGK00125) on AlphaBiocoat coated T25 flasks at 37° C. 5% CO2. […] Human microglia were seeded onto PLL coated cell culture inserts (Sarstedt, Cat #83.3932.040) at 103 000 cells/cm^2. […] The method for co-cultures of microglia and HRMECs was modified from protocol described by Ding et al. 2018 (Ding X, Gu R, Zhang M, Ren H, Shu Q, Xu G, Wu H. Microglia enhanced the angiogenesis, migration and proliferation of co-cultured RMECs. […] PMID: 30223824; PMCID: PMC6142340) and Ji Cho et al. 2019 (Ji Cho M, Yoon […], Park J, Lee J, Park J G, Cho Y L, Hun Kim J, Jang H, Park Y J, Lee S H, Min J K. Oxidative stress-mediated TXNIP loss causes RPE dysfunction. […] PMID: 31615975; PMCID: PMC6802648). Microglia was activated with LPS (100 ng/ml) in microglia complete growth media without FBS with simultaneous treatment of freshly prepared study compounds, Eylea and vehicle for 24 hours. HRMECs were incubated in basal Endo-Growth media for 24 hours before co-culturing. […] Media in microglia inserts containing LPS was replaced to corresponding freshly prepared study compounds, aflibercept and sulforaphane in basal Endo-Growth media. […] 5% CO2, stained with calcein-AM (5 μM) for 30 min and imaged using a fluorescence microscope (Leica Thunder 3D Tissue Imager, Leica Microsystems). Images were analyzed using the AngioTool software (Zudaire E, Gambardella L, Kurcz […] Computational Tool for Quantitative Analysis of Vascular Networks. PLOS ONE 6(11): e27385. https://doi.org/10.1371/journal.pone.0027385) for ImageJ (NIH public domain). Total tube area, tube length, density, lacunarity, and branching index (number of junctions and endpoints) were quantified. Images were analyzed using AngioTool software (NIH, Bethesda, MD; available in the public domain) for the following readouts: average vessels length, total vessels length, vessel area, vessels percentage area, total number of junctions, density of junctions, total number of endpoints, and mean lacunarity. […] Raw data for each of the readouts was plotted and analyzed by ordinary one-way ANOVA with Dunnett's multiple comparisons post-hoc test. […] Effect size data were analyzed by non-parametric Kruskal-Wallis test, with Dunn's multiple comparisons post-hoc test.

For assay [3] the test system is unchanged. Kind of assay: Tube formation assay, combination with aflibercept (contemplated). Type of assay: cell-based. The note with it: 1 and 10 μM combined with Aflibercept (30 nM). The source says: Microglia, especially activated microglia play important roles in angiogenesis and maintenance of vascular function haemostasis in the retinal microvasculature (Ding et al 2018). It is contemplated that a co-culture of human retinal microvasculature endothelial cells (HRMEC's) and human microglia from brain can be used to assess the effects of a compound of the disclosure, such as laquinimod, tasquinimod, ABR-215174 or ABR-215691, on neovascularization. A method such as the one outlined below may be used.
This study may be carried out substantially as outlined in Example 3.
Tube formation assay is performed using 24-well plate wells coated with Matrigel or in 96-wells as described Ding et al. 2018 (Ding et al. BMC Ophthalmology (2018) 18:249): A 96-well plate is coated with 50 μL/well Matrigel at 37° C. for 30 min. After co-culturing with microglia for 24 h, HRMECs are seeded on the Matrigel at 1.5×10^4 cells/well in 100 μL medium. After a period of time, for example 4 h, tube formation is observed and photographed with a microscope (Leica Microsystems). Images are analysed using the Angiotool plugin (Zudaire et al., 2011, PLoS one, 6, 11, e27385) for ImageJ (NIH public domain). Total tube area, tube length, density, lacunarity, and branching index (number of junctions and endpoints) are quantified.

Assay [4] has as its system bFGF induced corneal vascularisation. Description: bFGF induced corneal vascularisation (pellet in corneal pocket), area of neovascularisation. Type of assay: in vivo, C57BL/6 mice.
Where [5] appears, read: group 4: 10 μg/animal topical bid ×7, measured day 8.
Setting [6] is: group 5: 50 μg/animal topical bid ×7, measured day 8.
[7] abbreviates: group 6: 10 μg/animal topical qid ×7, measured day 8.
The mark [8] stands for this setting: group 7: 50 μg/animal topical qid ×7, measured day 8.
The mark [9] stands for this setting: group 4: 10 μg/animal topical bid ×5, measured day 6.
Setting [10] is: group 6: 10 μg/animal topical qid ×5, measured day 6.

“Also recorded” adds a separate entry of the source.

As for `CCN(C(=O)c1c(O)c2c(Cl)cccc2n(C)c1=O)c1ccccc1` [laquinimod], the “Inhibition of corneal vascularisation induced by VEGF” value is “did not provide for any inhibition; also recorded: no inhibition” in assay [1] (0.5 mg/kg bid, group 4); 8% in assay [1] (0.5 mg/kg qid, group 6); 46% in assay [1] (2.5 mg/kg bid, group 5); 50% in assay [1] (2.5 mg/kg qid, group 7). Also, the Area of vasc. in assay [1] (setting [5]) is 1.49 ± 0.13; in assay [1] (setting [6]) it was 0.79 ± 0.06; in assay [1] (setting [7]) it was 1.35 ± 0.09; in assay [1] (setting [8]), 0.74 ± 0.11; in assay [4] (setting [9]), 3.16 ± 0.06; in assay [4] (setting [10]), 2.25 ± 0.16. For the same compound, the “Area percent of positive control” value in assay [1] (setting [5]) came to 101%; in assay [1] (setting [6]), 54%; in assay [1] (setting [7]), 92%; in assay [1] (setting [8]) it was 50%; in assay [4] (setting [9]) it was 89%; in assay [4] (setting [10]), 63%. Moreover, the “Area percent of positive control” value in assay [4] (group 7: 50 μg/animal topical qid ×5, measured day 6) is listed as 44%. Also, in assay [2], the “Normalized effect size on average vessel length” value stood at 53%. In addition, the “effect on tube formation of combination compared to each compound used as monotherapy” value in assay [3] is given as “clear additive effect”. Besides, the “Inhibition of corneal vascularisation induced by bFGF” value in assay [4] (0.5 mg/kg qid, group 6) is 37%.
